Data set [1] is classed as in vitro ADME, human. An excerpt:
To study the capacity of an intradermal patch comprising an iron chelator, such as DFO, to deliver DFO into human dermis, a vertical Franz Diffusion Cell (FIG. 8) was used to evaluate the DIDP. Full thickness human skin samples obtained under Stanford University IRB approval were mounted between the two compartments of the diffusion cell with the stratum corneum facing the donor compartment. The DIDP was applied and isotonic phosphate buffer solution agitated with a magnetic stirrer and maintained at 37° C. by a circulating water jacket. Every hour, over the course of 15 hours, skin samples were removed, washed with phosphate buffer saline (PBS) and dried with an absorbent towel. The skin samples were frozen at −20° C. and cut with a microtome into 20 μm sections. The samples were analyzed for drug content spectrophotometrically at 560 nm (Shimadzu, Japan) and the relative DFO concentration was determined. Skin biopsies of the fresh full thickness skin samples used in the Franz cell experiment after DIDP application were processed for histology. Intracellular DFO-iron aggregates were made visible using ferrocyanide staining via a modified Prussian blue reaction as described previously. Skin samples were incubated overnight in 7% potassium ferrocyanide dissolved in 3% hydrochloric acid. […]

For data set [2] the following is noted: systemic delivery (subcutaneous, intravenous, intramuscular) within approved dose limits; cited from earlier work.
The test system of a further data set is HbSS BERK mice. As to the kind of experiment: Excisional wound healing in sickle cell mice. The class given is in vivo, mouse. To be noted: 6 mm full-thickness excisional wounds, daily treatment, mean±s.e.m., in days. An excerpt: The proposed mechanism for healing was investigated using a sickle cell mouse study (Rodrigues et al. publication pending). In this study, transgenic sickle cell mouse model, HbSS-BERK, were used to determine the effectiveness of DIDP. […] They recapitulate human sickle cell disease including hemolysis, reticulocytosis, anemia, extensive organ damage, shortened life span and pain.
Mice. […] These mice simulate human sickle cell disease including hemolysis, reticulocytosis, anemia, extensive organ damage, shortened life span and pain26-28. HbSS-BERK mice were bred and phenotyped for human sickle hemoglobin. Genotyping for the knockout and hemoglobin transgenes was performed. Control mice (wild type) on a C57/Bl6 background [#000664] were also obtained.
DFO delivery device. A transdermal delivery system was used to deliver DFO into the dermal tissue of the mice. […]
Excisional wound healing. Five-month old male HbSS BERK and wild type mice were subjected to a quantitative and reproducible model of excisional wounding using an established protocol described in Galioano et al., Wound Repair Regen 12, 485-492, doi:10.1111/j.1067-1927.2004.12404.x (2004). […]
Wound treatment. […] Wound area was measured using Image J software (NIH). […]

For `CC(=O)N(O)CCCCCNC(=O)CCC(=O)N(O)CCCCCNC(=O)CCC(=O)N(O)CCCCCN` [DFO, deferoxamine], in data set [1], the “Human skin permeation (stratum corneum / dermal accumulation)” value was “no permeation of the stratum corneum”. For the same compound, in data set [2], the “Toxicity in adult or pediatric patients” value was “no evidence of toxicity”. The “Time to complete wound closure” value in the data set on HbSS BERK mice stood at 14.5 ± 0.6268.

The values above are taken from patent US20210113498A1, “TOPICAL AND TRANSDERMAL DELIVERY OF AN IRON CHELATOR TO PREVENT AND TREAT CHRONIC WOUNDS” (TAUTONA GROUP IP HOLDING COMPANY, L.L.C., priority 2018, published 2021).
